Source: patent US12612407B2, “Imidazo[2,1-f][1,2,4]triazin-4-amine derivatives as TLR7 agonist” (BEIGENE, LTD., priority 2020, dated 2026)

Biological target: T1, human TLR7 (Homo sapiens, UniProt Q9NYK1)
T1 construct: host or cells: HEK293 (HEK-Blue hTLR7)
T1 sequence (Q9NYK1 27-1049): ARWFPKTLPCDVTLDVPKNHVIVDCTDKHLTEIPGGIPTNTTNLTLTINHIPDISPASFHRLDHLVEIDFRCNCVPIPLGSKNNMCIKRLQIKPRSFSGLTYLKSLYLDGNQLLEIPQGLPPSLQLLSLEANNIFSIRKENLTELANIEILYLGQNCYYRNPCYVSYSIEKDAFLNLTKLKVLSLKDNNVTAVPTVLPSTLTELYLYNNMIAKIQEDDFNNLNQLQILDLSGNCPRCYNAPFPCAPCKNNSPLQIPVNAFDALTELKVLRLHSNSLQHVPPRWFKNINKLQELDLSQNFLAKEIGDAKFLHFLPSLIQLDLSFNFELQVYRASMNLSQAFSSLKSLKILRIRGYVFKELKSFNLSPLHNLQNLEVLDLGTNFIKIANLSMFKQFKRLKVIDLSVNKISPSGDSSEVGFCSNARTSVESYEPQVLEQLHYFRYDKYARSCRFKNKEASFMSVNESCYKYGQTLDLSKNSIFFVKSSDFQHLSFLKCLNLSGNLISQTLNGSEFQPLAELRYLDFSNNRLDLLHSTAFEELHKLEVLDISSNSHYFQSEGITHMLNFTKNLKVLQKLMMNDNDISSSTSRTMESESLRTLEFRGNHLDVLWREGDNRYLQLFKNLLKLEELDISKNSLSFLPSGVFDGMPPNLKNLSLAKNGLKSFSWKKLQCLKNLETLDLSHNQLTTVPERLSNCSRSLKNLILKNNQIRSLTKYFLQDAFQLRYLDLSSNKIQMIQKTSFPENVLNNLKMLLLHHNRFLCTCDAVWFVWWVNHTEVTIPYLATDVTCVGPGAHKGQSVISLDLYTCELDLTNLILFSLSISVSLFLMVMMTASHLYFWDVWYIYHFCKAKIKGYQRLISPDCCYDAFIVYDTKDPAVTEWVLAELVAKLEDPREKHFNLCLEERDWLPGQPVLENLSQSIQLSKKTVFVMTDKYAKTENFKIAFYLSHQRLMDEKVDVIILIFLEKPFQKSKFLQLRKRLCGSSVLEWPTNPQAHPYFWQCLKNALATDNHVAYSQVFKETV
Assay: HEK293-Blue hTLR7 Reporter Assay (QUANTI-BLUE, SEAP readout)
Type: cell-based
Conditions: HEK-Blue-hTLR7 cells, 24 hrs treatment, Table 1, B1-B232
Protocol: HEK293-Blue hTLR7 Reporter Assay: HEK-Blue-hTLR7 cell line (Invivogen, Cat. No. hkb-htlr7) was designed so that the expression of the secreted embryonic alkaline phosphatase (SEAP) was induced by activating NF-κ and AP-1 via stimulating human TLR7 with TLR7 agonists. HEK-Blue-hTLR7 cells were seeded at a density of 4×10^4 cells/well in a volume of 180 μL in a 96-well plate in DMEM (Cat. No. 11965-092) supplemented with 10% (v/v) heat-inactivated fetal bovine serum (FBS) (Gibco, 10099-1441), 100 U/ml penicillin and 100 μg/ml streptomycin (Gibco, 15140122) containing 50 U/mL penicillin, […] and 10% (v/v) heat-inactivated fetal bovine serum. The cells were settled for 5 hrs, then treated with increasing amounts of tested compounds at 37° C. for 24 hrs. Then 20 μL of the supernatant from each well was incubated with 180 μL Quanti-blue substrate solution at 37° C. for 10-30 mins before the activity of the SEAP was determined at 620-655 nm using a spectrophotometer. The EC50 value for each compound was calculated with GraphPad Prism software using the sigmoidal dose-response function.

Row | Molecule | EC50
1 | 1-((4-amino-7-((5-methyl-6-(piperazin-1-yl)pyridin-3-yl)methyl)imidazo[2,1-f][1,2,4]triazin-2-yl)oxy)hexan-3-ol [Compound B157] | 667 nM
2 | 2-butoxy-7-((5-(piperidin-4-yl)pyridin-2-yl)methyl)imidazo[2,1-f][1,2,4]triazin-4-amine [Compound B77] | 311 nM
3 | 2-butoxy-7-((5-methyl-6-(2,7-diazaspiro[3.5]nonan-7-yl)pyridin-3-yl)methyl)imidazo[2,1-f][1,2,4]triazin-4-amine [Compound B86] | 202 nM
4 | 2-butoxy-7-((6-(4-ethylpiperazin-1-yl)-5-methylpyridin-3-yl)methyl)imidazo[2,1-f][1,2,4]triazin-4-amine [Compound B115] | 190 nM
5 | 2-butoxy-7-((6-(piperidin-4-yl)-5-(trifluoromethyl)pyridin-3-yl)methyl)imidazo[2,1-f][1,2,4]triazin-4-amine [Compound B28] | 302 nM
6 | 2-butyl-7-((5-methyl-6-(piperazin-1-yl)pyridin-3-yl)methyl)imidazo[2,1-f][1,2,4]triazine-2,4-diamine [Compound B13] | 48 nM
7 | CCC[C@H](C)Nc1nc(N)c2ncc(Cc3cnc(N4CCNCC4)c(C)c3)n2n1 (single isomer, unassigned) [Compound B148] | 6.5 nM
8 | CCC[C@H](C)Nc1nc(N)c2ncc(Cc3cnc(N4CCC(N(C)C)CC4)c(C)c3)n2n1 (single isomer, unassigned) [Compound B173] | 2.3 nM
9 | CCC[C@@H](C)Nc1nc(N)c2ncc(Cc3cnc(N4CCC(CN(C)C)CC4)c(C)c3)n2n1 (single isomer, unassigned) [Compound B178] | 17 nM
10 | CCC[C@@H](C)Nc1nc(N)c2ncc(Cc3cnc(N4CCC(N(C)C)CC4)c(C)c3)n2n1 (single isomer, unassigned) [Compound B185] | 25 nM
11 | CCC[C@@H](C)Nc1nc(N)c2ncc(Cc3cnc(N4CCNCC4)c(C)c3)n2n1 (single isomer, unassigned) [Compound B207] | 56 nM
12 | CCC[C@@H](C)Nc1nc(N)c2ncc(Cc3cnc(N4CCC(CNC)CC4)c(C)c3)n2n1 (single isomer, unassigned) [Compound B214] | 23 nM
13 | CCC[C@H](C)Oc1nc(N)c2ncc(Cc3cnc(N4CCC(CNC)CC4)c(C)c3)n2n1 (single isomer, unassigned) [Compound B221] | 3.9 nM
14 | CCC[C@@H](C)Oc1nc(N)c2ncc(Cc3cnc(N4CCC(CNC)CC4)c(C)c3)n2n1 (single isomer, unassigned) [Compound B222] | 60 nM
15 | CCC[C@H](CC)Oc1nc(N)c2ncc(Cc3cnc(N4CCNCC4)c(C)c3)n2n1 (single isomer, unassigned) [Compound B224] | 5.1 nM
16 | CCC[C@@H](CC)Oc1nc(N)c2ncc(Cc3cnc(N4CCNCC4)c(C)c3)n2n1 (single isomer, unassigned) [Compound B225] | 26 nM
17 | CCCCOc1nc(N)c2ncc(Cc3cnc(N4CCN(C)CC4)c(Cl)c3)n2n1 [Compound B1, 2-butoxy-7-((5-chloro-6-(4-methylpiperazin-1-yl)pyridin-3-yl)methyl)imidazo[2,1-f][1,2,4]triazin-4-amine] | 501 nM

Row | Molecule | EC50
18 | CCCCOc1nc(N)c2ncc(Cc3cnc(N4CCNCC4)c(Cl)c3)n2n1 [Compound B2, 2-butoxy-7-((5-chloro-6-(piperazin-1-yl)pyridin-3-yl)methyl)imidazo[2,1-f][1,2,4]triazin-4-amine] | 434 nM
19 | CCCCOc1nc(N)c2ncc(Cc3ccc(C4CCNCC4)cc3)n2n1 [Compound B3, 2-butoxy-7-(4-(piperidin-4-yl)benzyl)imidazo[2,1-f][1,2,4]triazin-4-amine] | 327 nM
20 | C=CC(=O)N1CCN(c2ncc(Cc3cnc4c(N)nc(OCCCC)nn34)cc2Cl)CC1 [Compound B4, 1-(4-(5-((4-amino-2-butoxyimidazo[2,1-f][1,2,4]triazin-7-yl)methyl)-3-chloropyridin-2-yl)piperazin-1-yl)prop-2-en-1-one] | > 10000 nM
21 | COCCOc1nc(N)c2ncc(Cc3cnc(N4CCNCC4)c(Cl)c3)n2n1 [Compound B5, 7-((5-chloro-6-(piperazin-1-yl)pyridin-3-yl)methyl)-2-(2-methoxyethoxy)imidazo[2,1-f][1,2,4]triazin-4-amine] | 1230 nM
22 | CCCCOc1nc(N)c2ncc(Cc3ccc(N4CCNCC4)nc3)n2n1 [Compound B6, 2-butoxy-7-((6-(piperazin-1-yl)pyridin-3-yl)methyl)imidazo[2,1-f][1,2,4]triazin-4-amine] | 421 nM
23 | CCCCOc1nc(N)c2ncc(Cc3cnc(N4CCNCC4)cc3Cl)n2n1 [Compound B7, 2-butoxy-7-((4-chloro-6-(piperazin-1-yl)pyridin-3-yl)methyl)imidazo[2,1-f][1,2,4]triazin-4-amine] | 2380 nM
24 | CCCCOc1nc(N)c2ncc(Cc3cnc(N4CCNCC4)c(C)c3)n2n1 [Compound B8, 2-butoxy-7-((5-methyl-6-(piperazin-1-yl)pyridin-3-yl)methyl)imidazo[2,1-f][1,2,4]triazin-4-amine] | 136 nM
25 | CCCCOc1nc(N)c2ncc(Cc3cnc(N4CCNCC4)c(F)c3)n2n1 [Compound B9, 2-butoxy-7-((5-fluoro-6-(piperazin-1-yl)pyridin-3-yl)methyl)imidazo[2,1-f][1,2,4]triazin-4-amine] | 345 nM
26 | CCCCOc1nc(N)c2ncc(Cc3cnc(N4CCNCC4)c(C(F)(F)F)c3)n2n1 [Compound B10, 2-butoxy-7-((6-(piperazin-1-yl)-5-(trifluoromethyl)pyridin-3-yl)methyl)imidazo[2,1-f][1,2,4]triazin-4-amine] | 417 nM
27 | CCCCOc1nc(N)c2ncc(Cc3cnc(N4CCNCC4)c(OC)c3)n2n1 [Compound B11, 2-butoxy-7-((5-methoxy-6-(piperazin-1-yl)pyridin-3-yl)methyl)imidazo[2,1-f][1,2,4]triazin-4-amine] | 247 nM
28 | CCCCOc1nc(N)c2ncc(Cc3cnc(N4CCN(C(=O)CN(C)C)CC4)c(C)c3)n2n1 [Compound B12, 1-(4-(5-((4-amino-2-butoxyimidazo[2,1-f][1,2,4]triazin-7-yl)methyl)-3-methylpyridin-2-yl)piperazin-1-yl)-2-(dimethylamino)ethan-1-one] | 44 nM
29 | CCCCOc1nc(N)c2ncc(Cc3ccc(C4CCN(C(=O)CN(C)C)CC4)cc3)n2n1 [Compound B14, 1-(4-(4-((4-amino-2-butoxyimidazo[2,1-f][1,2,4]triazin-7-yl)methyl)phenyl)piperidin-1-yl)-2-(dimethylamino)ethan-1-one] | 96 nM
30 | CCCCOc1nc(N)c2ncc(Cc3ccc(C4CCNCC4)cn3)n2n1 [Compound B15, 2-butoxy-7-((5-(piperidin-4-yl)pyridin-2-yl)methyl)imidazo[2,1-f][1,2,4]triazin-4-amine] | 509 nM
31 | CCCCOc1nc(N)c2ncc(Cc3ccc(N4CCNCC4)cn3)n2n1 [Compound B16, 2-butoxy-7-((5-(piperazin-1-yl)pyridin-2-yl)methyl)imidazo[2,1-f][1,2,4]triazin-4-amine] | 1440 nM
32 | CCCCOc1nc(N)c2ncc(Cc3cnc(C4CCNCC4)c(OC)c3)n2n1 [Compound B17, 2-butoxy-7-((5-methoxy-6-(piperidin-4-yl)pyridin-3-yl)methyl)imidazo[2,1-f][1,2,4]triazin-4-amine] | 149 nM
33 | CCCCNc1nc(N)c2ncc(Cc3ccc(C4CCNCC4)cc3)n2n1 [Compound B18, N2-butyl-7-(4-(piperidin-4-yl)benzyl)imidazo[2,1-f][1,2,4]triazine-2,4-diamine] | 171 nM

Same assay, conditions: HEK-Blue-hTLR7 cells, Table 2, C1-C6

Row | Molecule | EC50
34 | 6-propoxy-3-(4-(pyrrolidin-1-ylmethyl)benzyl)imidazo[1,2-b]pyridazin-8-amine [Compound C4] | > 10000 nM
